These are literature values, as cited in patent US20060210645A1, “Pharmaceutically acceptable carrier for ophthalmic compositions” (priority 2005, published 2006).

Molecules are shown by their SMILES.

The conditions of data set [1]: relative to methyltestosterone.
For data set [2] the following is noted: relative to methyltestosterone. This is another data set of the same source.

For the compound `C[C@]12COC(=O)C[C@@H]1CC[C@@H]1[C@@H]2CC[C@@]2(C)[C@H]1CC[C@]2(C)O` [oxandrolone, 17 alpha-methyl-17β-hydroxy-2-oxa-5 alpha-androstan-3-one], the “anabolic activity, % of that of methyltestosterone” value in data set [1] is 322%. Further, the “androgenic activity, % of that of methyltestosterone” value in data set [2] is recorded as 24%.
